In the series the test system is CCRIS mutagenicity, Ames/micronucleus/aberration tests. The experiment in a line: CCRIS mutagenicity studies.
[1] abbreviates: Test System: AMES SALMONELLA TYPHIMURIUM, Strain/Indicator: TA100, Metabolic Activation: NONE, Method: PREINCUBATION

Molecules are shown by their SMILES. The source made the active and inactive calls. The rule behind the calls is not given here.

Consider `CC(Cl)CCl` (configuration not stated), for which the mutagenic call (End Point: IN VITRO CHROMOSOMAL ABERRATIONS, Test System: CHINESE HAMSTER OVARY CELLS, Metabolic Activation: RAT, LIVER, S-9, AROCLOR 1254) was “active; positive”; the mutagenic call (Test System: AMES SALMONELLA TYPHIMURIUM, Strain/Indicator: TA98, Metabolic Activation: NONE, Method: PREINCUBATION) was “inactive; negative”; the mutagenic call (Test System: AMES SALMONELLA TYPHIMURIUM, Strain/Indicator: TA98, Metabolic Activation: RAT LIVER S-9, PHENOBARBITAL AND BETA-NAPHTHOFLAVONE, Method: PREINCUBATION) is “inactive; negative”; the mutagenic call under setting [1] was “inactive; negative”; the mutagenic call (Test System: AMES SALMONELLA TYPHIMURIUM, Strain/Indicator: TA100, Metabolic Activation: NONE, Method: STANDARD PLATE) is “active; positive”; the mutagenic call (Test System: AMES SALMONELLA TYPHIMURIUM, Strain/Indicator: TA100, Metabolic Activation: RAT LIVER S-9, PHENOBARBITAL AND BETA-NAPHTHOFLAVONE, Method: PREINCUBATION) is “inactive; negative”. In addition, the mutagenic call was “active; positive” (Test System: AMES SALMONELLA TYPHIMURIUM, Strain/Indicator: TA100, Metabolic Activation: RAT, LIVER, S-9, AROCLOR 1254, Method: STANDARD PLATE); “inactive; negative” (Test System: AMES SALMONELLA TYPHIMURIUM, Strain/Indicator: TA102, Metabolic Activation: NONE, Method: PREINCUBATION); “inactive; negative” (Test System: AMES SALMONELLA TYPHIMURIUM, Strain/Indicator: TA102, Metabolic Activation: RAT LIVER S-9, PHENOBARBITAL AND BETA-NAPHTHOFLAVONE, Method: PREINCUBATION); “inactive; negative” (Test System: AMES SALMONELLA TYPHIMURIUM, Strain/Indicator: TA104, Metabolic Activation: NONE, Method: PREINCUBATION); “inactive; negative” (Test System: AMES SALMONELLA TYPHIMURIUM, Strain/Indicator: TA104, Metabolic Activation: RAT LIVER S-9, PHENOBARBITAL AND BETA-NAPHTHOFLAVONE, Method: PREINCUBATION); “inactive; negative” (Test System: AMES SALMONELLA TYPHIMURIUM, Strain/Indicator: TA1535, Metabolic Activation: NONE, Method: PREINCUBATION). The mutagenic call reads like this: (Test System: AMES SALMONELLA TYPHIMURIUM, Strain/Indicator: TA1535, Metabolic Activation: NONE, Method: STANDARD PLATE) “active; positive”; (Test System: AMES SALMONELLA TYPHIMURIUM, Strain/Indicator: TA1535, Metabolic Activation: RAT LIVER S-9, PHENOBARBITAL AND BETA-NAPHTHOFLAVONE, Method: PREINCUBATION) “inactive; negative”; (Test System: AMES SALMONELLA TYPHIMURIUM, Strain/Indicator: TA1535, Metabolic Activation: RAT, LIVER, S-9, AROCLOR 1254, Method: STANDARD PLATE) “active; positive”; (Test System: AMES SALMONELLA TYPHIMURIUM, Strain/Indicator: TA1537, Metabolic Activation: NONE, Method: PREINCUBATION) “inactive; negative”; (Test System: AMES SALMONELLA TYPHIMURIUM, Strain/Indicator: TA1537, Metabolic Activation: RAT LIVER S-9, PHENOBARBITAL AND BETA-NAPHTHOFLAVONE, Method: PREINCUBATION) “inactive; negative”; (Test System: E.COLI, Strain/Indicator: WP2UVRA/PKM101, Metabolic Activation: NONE, Method: PREINCUBATION) “inactive; negative”. Moreover, the mutagenic call runs as follows: (Test System: E.COLI, Strain/Indicator: WP2UVRA/PKM101, Metabolic Activation: RAT LIVER S-9, PHENOBARBITAL AND BETA-NAPHTHOFLAVONE, Method: PREINCUBATION) “inactive; negative”; (Test System: E.COLI, Strain/Indicator: WP2UVRA, Metabolic Activation: NONE, Method: PREINCUBATION) “inactive; negative”; (Test System: E.COLI, Strain/Indicator: WP2UVRA, Metabolic Activation: RAT LIVER S-9, PHENOBARBITAL AND BETA-NAPHTHOFLAVONE, Method: PREINCUBATION) “inactive; negative”.
Consider `Nc1[nH]c(=O)nc2c1ncn2[C@@H]1O[C@H](CO)[C@@H](O)[C@H]1O`, for which, under setting [1], the mutagenic call was “inactive; negative”.

(Values after PubChem BioAssay AID1259407 (Chemical Carcinogenesis Research Information System (CCRIS), 2018).)
